Measurements taken from paper PMC8315116 (Biochemistry, 2021).
“And” between values parts separate entries of the source, which are not always exact repeats. Equal entries are not always repeated. Where two headings read alike, the source gives them in different places. One block for each molecule: values may come before it.

Key:
human MAT2A [1] = target: T1, human MAT2A (Homo sapiens, UniProt P31153); assay: ATP analogues as alternative substrates of MAT2A; format: biochemical; conditions: Figure 5C
human MAT2A [2] = target: T1, human MAT2A; assay: Product inhibition of MAT2A by AdoMet; format: biochemical; conditions: non-competitive
human MAT2A [3] = target: T1, human MAT2A; assay: Triphosphate hydrolysis by MAT2A; format: biochemical; conditions: for Km: read-out: Km of triphosphate hydrolysis
human MAT2A [4] = target: T1, human MAT2A; assay: HPLC assay of ATPase activity of MAT2A; format: biochemical; conditions: 80 μM AdoMet or 10 μM ammonium vanadate
human MAT2A [5] = target: T1, human MAT2A; assay: Thermal melt of MAT2A with Sypro Orange and ligands; conditions: 10 mM MgCl2
human MAT2A [6] = target: T1, human MAT2A; assay: Inhibition of MAT2A by PNP or PPNP; conditions: non-competitive
human MAT2A [7] = target: T1, human MAT2A; conditions: varied substrate; fits to data of Fig. 2
human MAT2A [8] = target: T1, human MAT2A; assay: Inhibition of MAT2A by ATP and triphosphate analogues; format: biochemical
[9] = 1 mM methionine and 200 μM ATP, NO = no significant inhibition observed

T1 sequence (P31153 whole entry): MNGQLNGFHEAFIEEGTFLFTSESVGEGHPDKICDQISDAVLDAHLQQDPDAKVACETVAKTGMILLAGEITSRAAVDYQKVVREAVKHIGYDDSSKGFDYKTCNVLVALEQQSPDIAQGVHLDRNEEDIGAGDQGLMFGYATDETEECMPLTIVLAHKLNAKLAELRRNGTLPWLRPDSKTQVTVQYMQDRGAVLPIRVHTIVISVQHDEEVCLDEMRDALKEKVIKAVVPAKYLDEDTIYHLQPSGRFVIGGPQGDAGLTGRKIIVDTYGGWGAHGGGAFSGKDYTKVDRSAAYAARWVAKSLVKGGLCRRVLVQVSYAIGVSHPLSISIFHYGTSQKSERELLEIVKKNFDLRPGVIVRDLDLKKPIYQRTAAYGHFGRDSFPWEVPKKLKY

Molecule: Nc1ncnc2c1ncn2[C@@H]1O[C@H](COP(=O)(O)CP(=O)(O)OP(=O)(O)O)[C@@H](O)[C@H]1O [AMPCPP]
production of orthophosphate from methionine and ATP analogue (human MAT2A [1]): phosphate formation

Molecule: O=P(O)(O)NP(=O)(O)O [Imidodiphosphate]
Ki (human MAT2A [6]; Ki, toward ATP): 14 ± 1 µM | Ki (human MAT2A [6]; Ki, toward methionine): 17 ± 2 µM

Molecule: O=P(O)(O)NP(=O)(O)NP(=O)(O)O [PNPNP, (α–β, β–γ)-diimido triphosphate]
Ki (human MAT2A [8]; [9]): 0.12 ± 0.03 µM | increased affinity compared to PPNP (human MAT2A [8]; PNPNP versus PPNP): ~10 fold | Ki (human MAT2A [8]; read-out: Ki (inhibitor)): 0.115 µM | shift of thermal melt temperature (Tm) compared to MAT2A alone (human MAT2A [5]): > 50 °C

Molecule: O=P(O)(O)NP(=O)(O)OP(=O)(O)O [PPNP, Imidotriphosphate]
Ki (human MAT2A [6]; toward ATP): 0.86 ± 0.06 µM | Ki (human MAT2A [6]; toward methionine): 0.76 ± 0.07 µM

Molecule: O=P(O)(O)OP(=O)(O)O [pyrophosphate]
thermal stabilization of MAT2A, in words (human MAT2A [5]): large shifts in the Tm

Further lines, results first:

Ki (human MAT2A [2]; with respect to ATP): 136 ± 7 µM | Ki (human MAT2A [2]; with respect to methionine): 81 ± 10 µM | activation of triphosphate hydrolysis (human MAT2A [3]; AdoMet at 150 μM versus no AdoMet): 3.5 fold | effect on the ATPase reaction of MAT2A (human MAT2A [4]): inhibited | thermal stabilization of MAT2A, in words (human MAT2A [5]): did little to increase MAT2A stability
Molecule: C[S+](CC[C@H](N)C(=O)[O-])C[C@H]1O[C@@H](n2cnc3c(N)ncnc32)[C@H](O)[C@@H]1O (stereo partly drawn) [AdoMet, S-Adenosyl-L-methionine]

kcat (human MAT2A [7]): 0.27 ± 0.01 s⁻¹ | shift of thermal melt temperature (Tm) compared to MAT2A alone (human MAT2A [5]): 1-3 °C
Molecule: CSCC[C@H](N)C(=O)O [Methionine]

rate of triphosphate hydrolysis (human MAT2A [3]; AdoMet at 150 μM): 0.07 ± 0.01 s⁻¹ | kcat of triphosphate hydrolysis (human MAT2A [3]; AdoMet at 1 mM): 0.033 ± 0.003 s⁻¹ | Km (human MAT2A [3]; AdoMet at 150 μM): 6 ± 2 µM | Km (human MAT2A [3]; without AdoMet present): 4 ± 2 µM | rate of triphosphate hydrolysis (human MAT2A [3]; without AdoMet present): 0.020 ± 0.003 s⁻¹ | Ki (human MAT2A [8]; [9]): 3.45 µM and 3.4 µM | thermal stabilization of MAT2A, in words (human MAT2A [5]): large shifts in the Tm
Molecule: O=P(O)(O)OP(=O)(O)OP(=O)(O)O [Triphosphate]

thermal stabilization of MAT2A, in words (human MAT2A [5]): did little to increase MAT2A stability
Molecule: phosphate
